# Reference: patent US20070059264A1, “Reduction of hair growth” (priority 2005, published 2007)
# Test system: axillary (armpit) hair growth
# Test: Axillary hair growth reduction in human subjects (hair length by image analysis)
# Assay type: in vivo
# Conditions: for Hair Length (μm): Example 1 including 3% DFMO once a day to armpit, six human subjects; for % Reduction (hair length): Example 1 including 3% DFMO vs Right Guard roll-on vehicle
# Experimental: Example 1, including 3% DFMO, was tested in six human subjects to determine the effectiveness of the composition for reducing hair growth. The composition was applied once a day to one armpit in a subject; Right Guard® roll-on product was applied once daily to the other armpit. The hair length measurements were made at select time intervals using a semi automated image analysis system. For these measurements, the subjects shaved both armpits and then digital images of the treatment areas (DFMO and Vehicle) were taken at 24, 48, and 72 hr later. The number of hairs measured per site ranged from 58 to 87.
# The results after six weeks and 16 weeks are shown below.
# [1] = after 6 weeks, 24 Hrs after shaving
# [2] = after 6 weeks, 48 Hrs after shaving
# [3] = after 6 weeks, 72 Hrs after shaving
# [4] = after 16 weeks, 24 Hrs after shaving
# [5] = after 16 weeks, 48 Hrs after shaving
# [6] = after 16 weeks, 72 Hrs after shaving
smiles,measurement,setting,value
"NCCCC(N)(C(=O)O)C(F)F (stereo not drawn) [DFMO, α-Difluoromethylomithine]",Hair Length (μm),[1],274 ± 15 μm
same,% Reduction (hair length),[1],48 ± 3%
same,Hair Length (μm),[2],509 ± 26 μm
same,% Reduction (hair length),[2],49 ± 3%
same,Hair Length (μm),[3],867 ± 34 μm
same,% Reduction (hair length),[3],46 ± 2%
same,Hair Length (μm),[4],170 ± 16 μm
same,% Reduction (hair length),[4],66 ± 3%
same,Hair Length (μm),[5],273 ± 23 μm
same,% Reduction (hair length),[5],73 ± 3%
same,Hair Length (μm),[6],326 ± 24 μm
same,% Reduction (hair length),[6],75 ± 2%
